Measurements taken from publication PMC12332667, “Role of Structural Modifications in Peptidomimetic Compounds as Potential Antimicrobial Agents against Staphylococcus aureus and Streptococcus pyogenes: Balancing Bioavailability, Safety, and Antimicrobial Activity” (ACS Omega, 2025).
In brackets after ≈: the same amount, converted by molar mass. Residues, ends and D or L forms follow the SMILES beside them.

How the values were obtained:
S. aureus ATCC 43300 = experiment: MIC/MBC broth microdilution, S. aureus; type: cell-based, Staphylococcus aureus; conditions: S. aureus
[1] = test system: human dermal fibroblast cell line (46BR.1N); experiment: XTT cell proliferation assay, fibroblasts; type: cell-based; conditions: for effect on proliferation, in words: XTT, 48 and 72 h, 0.01–150 μg/mL
Method in brief: (§1)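 Proliferation was read as XTT absorbance at 490 nm after 4 h of reagent incubation, following 48 or 72 h of peptide exposure in serum-free HG-DMEM (37 °C, 5% CO2). The 72 h arm included a half-medium change with second peptide dose at 48 h. Significance by Mann–Whitney U, p ≤ 0.05.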

E. coli ATCC 25922 = experiment: MIC/MBC broth microdilution, E. coli; type: cell-based, Escherichia coli
Method in brief: (§2)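 Bacteria inoculated at about 10^5 CFU/mL in BHI broth and incubated 18 h at 37 °C with serial dilutions of peptidomimetics, NCCLS microdilution format. MBC taken as lowest concentration leaving no more than 3 colonies (≥99.9% kill); MIC as lowest concentration without obvious growth (≥90% of untreated); solvent controls included.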

S. pyogenes ATCC 19615 = experiment: MIC/MBC broth microdilution, S. pyogenes; type: cell-based, Streptococcus pyogenes; conditions: S. pyogenes
Method in brief: as §2

E. faecalis c.i. = experiment: MIC/MBC broth microdilution, E. faecalis; type: cell-based, Enterococcus faecalis
Method in brief: as §2

[2] = Hydrophobicity by reverse-phase chromatography; type: physicochemical; conditions: acetonitrile content in the mobile phase at the retention time
Method in brief: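 Hydrophobicity value is the acetonitrile content (%) of the eluent when the compound elutes from a reverse-phase column.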

P. aeruginosa ATCC 10145 = experiment: MIC/MBC broth microdilution, P. aeruginosa; type: cell-based
Method in brief: as §2

S. cohnii c.i. = experiment: MIC/MBC broth microdilution, S. cohnii; type: cell-based, Staphylococcus cohnii
Method in brief: as §2

[3] = test system: immortalized human HaCaT keratinocytes; experiment: XTT cell proliferation assay, keratinocytes; type: cell-based; conditions: for effect on proliferation, in words: XTT, 48 and 72 h, 0.01–150 μg/mL
Method in brief: as §1

[4] = Stability / presence in human plasma; type: in vitro ADME; conditions: 24 h incubation at 37 °C
Method: Blood was drawn from healthy volunteers, and lithium/heparin holding tubes were used to remove the clot by centrifugation. The plasma was aliquoted in sterile conditions and incubated with the desired compounds for 24 h at 37 °C. The samples were prepared under sterile conditions following the previously described protocol. The samples were collected at six time points (0, 1, 2, 3, 6, and 24 h) for determining stability in water solutions, and time points of 0, 10, 20, 30, 40, 50, and 60 min, as well as of 2, 3, 6, and 24 h, for determining stability in human plasma. The analysis was performed by HPLC using a Kromasil C8 column (5 μm, 90 Å, 1.0 mm × 250 mm) monitored by a PDA or ELDS-LT II detector. For quantification, peak areas were compared to a calibration curve calculated by Shimadzu LCsolution Software (Kyoto, Japan). Graphs were prepared in GraphPad Prism (Boston, USA).

[5] = test system: K. pneumoniae ATCC 700603; experiment: MIC/MBC broth microdilution, K. pneumoniae; type: cell-based
Method in brief: as §2

[6] = A-196 0.01–10 μg/mL, A-219 above 0.1 μg/mL, A-213 lower concentrations

Row | Structure (SMILES) | MIC (S. aureus ATCC 43300; H2O) | MIC (S. aureus ATCC 43300; water additive DMSO) | MIC (S. aureus ATCC 43300; water additive EtOH) | effect on proliferation, in words [1] | MIC (E. coli ATCC 25922; H2O) | MIC (E. coli ATCC 25922; water additive DMSO) | MIC (E. coli ATCC 25922; water additive EtOH) | MBC (S. pyogenes ATCC 19615; H2O) | MIC (S. pyogenes ATCC 19615; H2O) | MBC (S. pyogenes ATCC 19615; water additive DMSO) | MBC (S. pyogenes ATCC 19615; water additive EtOH) | MIC (S. pyogenes ATCC 19615; water additive EtOH) | MIC (E. faecalis c.i.; H2O) | MIC (E. faecalis c.i.; water additive DMSO) | MIC (E. faecalis c.i.; water additive EtOH) | % AcCN (acetonitrile required for elution from the column) [2] | MBC (P. aeruginosa ATCC 10145; H2O) | MIC (P. aeruginosa ATCC 10145; H2O) | MBC (P. aeruginosa ATCC 10145; water additive DMSO) | MIC (P. aeruginosa ATCC 10145; water additive DMSO) | other results
1 | CC(C)[C@H](NC(=O)[C@H](Cc1c[nH]cn1)NC(=O)[C@H](CCCNC(=N)N)NC(=O)OCc1ccccc1)C(=O)NCCc1ccccc1 [Compound A-219] (HELM PEPTIDE1{[O=C(OCc1ccccc1)[*:2]].R.H.V.[c1ccc(CCN[*:1])cc1]}$$$$V2.0) | > 512 µg/mL | > 512 µg/mL | > 512 µg/mL | best pro-proliferative effect | > 512 µg/mL | > 512 µg/mL | > 512 µg/mL | 512 µg/mL (≈ 790 µM) | 512 µg/mL (≈ 790 µM) | 512 µg/mL (≈ 790 µM) | 512 µg/mL (≈ 790 µM) | 512 µg/mL (≈ 790 µM) | > 512 µg/mL | > 512 µg/mL | > 512 µg/mL | 42.6% | > 512 µg/mL | 512 µg/mL (≈ 790 µM) | 512 µg/mL (≈ 790 µM) | 256 µg/mL (≈ 395 µM) | pro-proliferative effect above control [1, 6]: around 20%; MIC (S. pyogenes ATCC 19615; water additive DMSO): 512 µg/mL (≈ 790 µM); MBC (P. aeruginosa ATCC 10145; water additive EtOH): > 512 µg/mL; MIC (P. aeruginosa ATCC 10145; water additive EtOH): 512 µg/mL (≈ 790 µM); MIC (S. cohnii c.i.; H2O): > 512 µg/mL; MIC (S. cohnii c.i.; water additive DMSO): > 512 µg/mL; MIC (S. cohnii c.i.; water additive EtOH): > 512 µg/mL; pro-proliferative effect above control [3, 6]: around 20%; effect on proliferation, in words [3]: best pro-proliferative effect; present in human plasma [4]: 85–90%; MIC ([5]; H2O): > 512 µg/mL; MIC ([5]; water additive DMSO): > 512 µg/mL; MIC ([5]; water additive EtOH): > 512 µg/mL
2 | CC(C)[C@H](NC(=O)[C@H](Cc1c[nH]cn1)NC(=O)[C@H](CCCCN)NC(=O)OCc1ccccc1)C(=O)NCCc1ccccc1 [Compound A-220] (HELM PEPTIDE1{[O=C(OCc1ccccc1)[*:2]].K.H.V.[c1ccc(CCN[*:1])cc1]}$$$$V2.0) | 512 µg/mL (≈ 826 µM) | 512 µg/mL (≈ 826 µM) | 512 µg/mL (≈ 826 µM) | did not exert any negative impact | 512 µg/mL (≈ 826 µM) | > 512 µg/mL | 512 µg/mL (≈ 826 µM) | > 512 µg/mL | 512 µg/mL (≈ 826 µM) | 256 µg/mL (≈ 413 µM) | 512 µg/mL (≈ 826 µM) | 512 µg/mL (≈ 826 µM) | > 512 µg/mL | > 512 µg/mL | > 512 µg/mL | 42.4% | > 512 µg/mL | 512 µg/mL (≈ 826 µM) | > 512 µg/mL | 512 µg/mL (≈ 826 µM) | MBC (S. aureus ATCC 43300; H2O): 512 µg/mL (≈ 826 µM); MBC (S. aureus ATCC 43300; water additive DMSO): 512 µg/mL (≈ 826 µM); MBC (S. aureus ATCC 43300; water additive EtOH): 512 µg/mL (≈ 826 µM); MBC (E. coli ATCC 25922; H2O): 512 µg/mL (≈ 826 µM); MBC (E. coli ATCC 25922; water additive EtOH): 512 µg/mL (≈ 826 µM); MBC (P. aeruginosa ATCC 10145; water additive EtOH): > 512 µg/mL; MIC (P. aeruginosa ATCC 10145; water additive EtOH): 512 µg/mL (≈ 826 µM); MBC (S. cohnii c.i.; H2O): 512 µg/mL (≈ 826 µM); MIC (S. cohnii c.i.; H2O): 256 µg/mL (≈ 413 µM); MBC (S. cohnii c.i.; water additive DMSO): 512 µg/mL (≈ 826 µM); MIC (S. cohnii c.i.; water additive DMSO): 256 µg/mL (≈ 413 µM); MBC (S. cohnii c.i.; water additive EtOH): 512 µg/mL (≈ 826 µM); MIC (S. cohnii c.i.; water additive EtOH): 256 µg/mL (≈ 413 µM); effect on proliferation, in words [3]: did not exert any negative impact; present in human plasma [4]: 85–90%; MIC ([5]; H2O): > 512 µg/mL; MIC ([5]; water additive DMSO): > 512 µg/mL; MIC ([5]; water additive EtOH): > 512 µg/mL
